Results published in patent US12091425B2 (AMGEN INC., priority 2016, dated 2024).

Columns and labels:
[1] = target: T1, Mcl-1/Bim interaction, recombinant human Mcl-1 (171-327) (Homo sapiens, UniProt Q07820); assay: Cell free Mcl-1: Bim Affinity Assay (Mcl-1 HTRF); format: binding; settings: cell free Mcl-1:Bim TR-FRET, recombinant human Mcl-1 (171-327)
T1 construct: made in house
Outline: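 Read-out is time-resolved FRET after overnight incubation, using a biotin-labelled peptide from human Bim (51-76) as the binding partner; IC50 was derived from competition curves.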

[2] = tested on: OPM-2 human multiple myeloma cell line; assay: Cell Viability Assay (OPM-2 10 FBS); format: cell-based; settings: Homo sapiens, OPM-2, 16 h, OPM-2 cells, 16 h, CellTiter-Glo
Outline: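 Plated at 3000 cells/well in 10% FBS complete medium, the cells received a serial compound dilution series and incubated 16 h at 37 °C with 5% CO2. CellTiter-Glo was then added; IC50 values were fitted with a logistic 4-parameter model.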

T1 sequence (Q07820 171-327): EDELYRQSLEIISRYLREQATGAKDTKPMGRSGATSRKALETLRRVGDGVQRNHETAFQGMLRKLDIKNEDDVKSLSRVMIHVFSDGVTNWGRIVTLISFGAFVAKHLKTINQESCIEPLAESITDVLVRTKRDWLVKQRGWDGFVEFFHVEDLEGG

IC50 [1]	IC50 [2]	Structure (SMILES)
0.301 nM	117 nM	C[C@@H]1[C@@H](C)C/C=C/[C@H](OCCN2CCC2=O)[C@@H]2CC[C@H]2CN2C[C@@]3(CCCc4cc(Cl)ccc43)COc3ccc(cc32)C(=O)NS1(=O)=O [Example 731, (1S,3′R,6′R,7′S,8′E,11′S,12′R)-6-chloro-11′,12′-dimethyl-7′-(2-(2-oxo-1-azetedinyl)ethoxy)-3,4-dihydro-2H,15′H-spiro[naphthalene-1,22′-[20]oxa[13]thia[1,14]diazatetracyclo[14.7.2.0^3,6.0^19,24]pentacosa [8,16,18,24]tetraen]-15′-one-13′, 13′-dioxide]
0.284 nM	69.7 nM	CC(=O)N1CCN(CCO[C@H]2/C=C/C[C@H](C)[C@@H](C)S(=O)(=O)NC(=O)c3ccc4c(c3)N(C[C@@H]3CC[C@H]32)C[C@@]2(CCCc3cc(Cl)ccc32)CO4)CC1 [Example 733, (1S,3′R,6′R,7′S,8′E,11′S,12′R)-7′-(2-(4-acetyl-1-piperazinyl)ethoxy)-6-chloro-11′,12′-dimethyl-3,4-dihydro-2H,15′H-spiro[naphthalene-1,22′-[20]oxa[13]thia[1,14]diazatetracyclo [14.7.2.0^3,6.0^19,24]pentacosa[8,16,18,24]tetraen]-15′-one-13′, 13′-dioxide]
0.681 nM	202 nM	C[C@@H]1[C@@H](C)C/C=C/[C@H](OCCNS(C)(=O)=O)[C@@H]2CC[C@H]2CN2C[C@@]3(CCCc4cc(Cl)ccc43)COc3ccc(cc32)C(=O)NS1(=O)=O [Example 735, N-(2-(((1S,3′R,6′R,7′S,8′E,11′S,12′R)-6-chloro-11′,12′-dimethyl-13′, 13′-dioxido-15′-oxo-3,4-dihydro-2H-spiro[naphthalene-1,22′-[20]oxa[13]thia[1,14]diazatetracyclo[14.7.2.0^3,6.0^19,24]pentacosa[8,16,18,24]tetraen]-7′-yl)oxy)ethyl)Methanesulfonamide]
15.1 nM	3390 nM	C[C@@H]1[C@@H](C)C/C=C/[C@H](OCCC2CCN(C(=O)OC(C)(C)C)CC2)[C@@H]2CC[C@H]2CN2C[C@@]3(CCCc4cc(Cl)ccc43)COc3ccc(cc32)C(=O)NS1(=O)=O [Example 737, tert-butyl 4-(2-(((1S,3′R,6′R,7′S,8′E,11′S,12′R)-6-chloro-11′,12′-dimethyl-13′,13′-dioxido-15′-oxo-3,4-dihydro-2H-spiro[naphthalene-1,22′-[20]oxa[13]thia[1,14]diazatetracyclo[14.7.2.0˜3,6˜.0˜19,24˜]pentacosa[8,16,18,24]tetraen]-7′-yl)oxy)ethyl)-1-piperidinecarboxylate]
0.543 nM	170 nM	CC[C@@H]1[C@@H](C)C/C=C/[C@H](OCCOC)[C@@H]2CC[C@H]2CN2C[C@@]3(CCCc4cc(Cl)ccc43)COc3ccc(cc32)C(=O)NS1(=O)=O [Example 740, (1S,3′R,6′R,7′S,8′E,11′S,12′R)-6-chloro-12′-ethyl-7′-(2-methoxyethoxy)-11′-methyl-3,4-dihydro-2H,15′H-spiro[naphthalene-1,22′-[20]oxa[13]thia[1,14]diazatetracyclo[14.7.2.0^3,6.0^19,24]pentacosa [8,16,18,24]tetraen]-15′-one-13′, 13′-dioxide]
13.5 nM	3110 nM	CC[C@@H]1C/C=C/[C@H](OCC(=O)OC)[C@@H]2CC[C@H]2CN2C[C@@]3(CCCc4cc(Cl)ccc43)COc3ccc(cc32)C(=O)NS(=O)(=O)C1 [Example 741, methyl (((1S,3′R,6′R,7′S,8′E,11′R)-6-chloro-11′-ethyl-13′,13′-dioxido-15′-oxo-3,4-dihydro-2H-spiro[naphthalene-1,22′-[20]oxa[13]thia [1,14]diazatetracyclo[14.7.2.0^3,6.0^19,24]pentacosa[8,16,18,24]tetraen]-7′-yl)oxy)acetate]
0.113 nM	11200 nM	CC[C@@H]1C/C=C/[C@H](OCC(=O)O)[C@@H]2CC[C@H]2CN2C[C@@]3(CCCc4cc(Cl)ccc43)COc3ccc(cc32)C(=O)NS1(=O)=O [Example 764, (((1S,3′R,6′R,7′S,8′E,11′R)-6-chloro-11′-ethyl-12′,12′-dioxido-14′-oxo-3,4-dihydro-2H-spiro[naphthalene-1,21′-[19]oxa[12]thia[1,13]diazatetracyclo[13.7.2.0^3,6.0^18,23]tetracosa[8,15,17,23]tetraen]-7′-yl)oxy)acetic Acid]

Continued, compound first:

Structure (SMILES)	IC50 [1]	IC50 [2]
C[C@@H]1[C@@H](C)C/C=C/[C@H](OCCN2CCCCC2=O)[C@@H]2CC[C@H]2CN2C[C@@]3(CCCc4cc(Cl)ccc43)COc3ccc(cc32)C(=O)NS1(=O)=O [Example 728, (1S,3′R,6′R,7′S,8′E,11′S,12′R)-6-chloro-11′,12′-dimethyl-7′-(2-(2-oxo-1-piperidinyl)ethoxy)-3,4-dihydro-2H,15′H-spiro[naphthalene-1,22′-[20]oxa[13]thia[1,14]diazatetracyclo[14.7.2.0^3,6.0^19,24]pentacosa [8,16,18,24]tetraen]-15′-one-13′, 13′-dioxide]	0.437 nM	268 nM
C[C@@H]1[C@@H](C)C/C=C/[C@H](OCCN2CCOC2=O)[C@@H]2CC[C@H]2CN2C[C@@]3(CCCc4cc(Cl)ccc43)COc3ccc(cc32)C(=O)NS1(=O)=O [Example 729, (1S,3′R,6′R,7′S,8′E,11′S,12′R)-6-chloro-11′,12′-dimethyl-7′-(2-(2-oxo-1,3-oxazolidin-3-yl)ethoxy)-3,4-dihydro-2H,15′H-spiro[naphthalene-1,22′-[20]oxa[13]thia[1,14]diazatetracyclo[14.7.2.0^3,6.0^19,24]pentacosa [8,16,18,24]tetraen]-15′-one-13′, 13′-dioxide]	0.311 nM	118 nM
C[C@@H]1[C@@H](C)C/C=C/[C@H](OCCN2CCCC2=O)[C@@H]2CC[C@H]2CN2C[C@@]3(CCCc4cc(Cl)ccc43)COc3ccc(cc32)C(=O)NS1(=O)=O [Example 730, (1S,3′R,6′R,7′S,8′E,11′5,12′R)-6-chloro-11′,12′-dimethyl-7′-(2-(2-oxo-1-pyrrolidinyl)ethoxy)-3,4-dihydro-2H,15′H-spiro[naphthalene-1,22′-[20]oxa[13]thia[1,14]diazatetracyclo[14.7.2.0^3,6.0^19,24]pentacosa [8,16,18,24]tetraen]-15′-one-13′, 13′-dioxide]	0.307 nM	157 nM
CC(=O)NCCO[C@H]1/C=C/C[C@H](C)[C@@H](C)S(=O)(=O)NC(=O)c2ccc3c(c2)N(C[C@@H]2CC[C@H]21)C[C@@]1(CCCc2cc(Cl)ccc21)CO3 [Example 732, N-(2-(((1S,3′R,6′R,7′S,8′E,11′S,12′R)-6-chloro-11,12′-dimethyl-13′, 13′-dioxido-15′-oxo-3,4-dihydro-2H-spiro[naphthalene-1,22′-[20]oxa[13]thia[1,14]diazatetracyclo[14.7.2.0^3,6.0^19,24]pentacosa[8,16,18,24]tetraen]-7′-yl)oxy)ethyl)acetamide]	0.244 nM	170 nM
C[C@@H]1[C@@H](C)C/C=C/[C@H](OCCN2CCN(S(C)(=O)=O)CC2)[C@@H]2CC[C@H]2CN2C[C@@]3(CCCc4cc(Cl)ccc43)COc3ccc(cc32)C(=O)NS1(=O)=O [Example 734]	1.12 nM	134 nM
CCOC(=O)NCCO[C@H]1/C=C/C[C@H](C)[C@@H](C)S(=O)(=O)NC(=O)c2ccc3c(c2)N(C[C@@H]2CC[C@H]21)C[C@@]1(CCCc2cc(Cl)ccc21)CO3 [Example 736, ethyl (2-(((1S,3′R,6′R,7′S,8′E,11′S,12′R)-6-chloro-11′,12′-dimethyl-13′, 13′-dioxido-15′-oxo-3,4-dihydro-2H-spiro[naphthalene-1,22′-[20]oxa[13]thia[1,14]diazatetracyclo[14.7.2.0^3,6.0^19,24]pentacosa[8,16,18,24]tetraen]-7′-yl)oxy)ethyl)carbamate]	0.891 nM	192 nM
CCOC(=O)CO[C@H]1/C=C/C[C@H](C)[C@H](C)S(=O)(=O)NC(=O)c2ccc3c(c2)N(C[C@@H]2CC[C@H]21)C[C@@]1(CCCc2cc(Cl)ccc21)CO3 [Example 738, ethyl (((1S,3′R,6′R,7′S,8′E,11′S,12′S)-6-chloro-11′,12′-dimethyl-13′,13′-dioxido-15′-oxo-3,4-dihydro-2H-spiro[naphthalene-1,22′-[20]oxa[13]thia[1,14]diazatetracyclo[14.7.2.0^3,6.0^19,24]pentacosa[8,16,18,24]tetraen]-7′-yl)oxy)acetate]	3.21 nM	1760 nM
C[C@H]1C/C=C/[C@H](OCC(=O)O)[C@@H]2CC[C@H]2CN2C[C@@]3(CCCc4cc(Cl)ccc43)COc3ccc(cc32)C(=O)NS(=O)(=O)[C@H]1C [Example 739, (((1S,3′R,6′R,7′S,8′E,11′S,12′S)-6-chloro-11′,12′-dimethyl-13′,13′-dioxido-15′-oxo-3,4-dihydro-2H-spiro[naphthalene-1,22′-[20]oxa[13]thia [1,14]diazatetracyclo[14.7.2.0^3,6.0^19,24]pentacosa[8,16,18,24]tetraen]-7′-yl)oxy)acetic Acid]	0.141 nM	24200 nM
COc1ccc(CNCCO[C@H]2/C=C/C[C@H](C)[C@@H](C)S(=O)(=O)NC(=O)c3ccc4c(c3)N(C[C@@H]3CC[C@H]32)C[C@@]2(CCCc3cc(Cl)ccc32)CO4)c(OC)c1 [Example 777, (1S,3′R,6′R,7′S,8′E,11′S,12′R)-6-chloro-7′-(2-((2,4-dimethoxybenzyl)amino)ethoxy)-11′,12′-dimethyl-3,4-dihydro-2H,15′H-spiro[naphthalene-1,22′-[20]oxa[13]thia[1,14]diazatetracyclo[14.7.2.0^3,6.0^19,24]pentacosa[8,16,18,24]tetraen]-15′-one-13′, 13′-dioxide]	13.8 nM	912 nM
